According to patent US12109176B1, “Effect of glycerol on biofilm forming bacteria and fungi that changes the microbes sensitivity to pro and anti-biofilm non-toxic, non-bonded plasma amino acids and amino acid derivatives” (priority 2023, dated 2024):
Entries after “also recorded” stand apart in the source; their conditions may differ.

Experiments:
[1] = tested on: bacterial and fungal biofilm; experiment: In vitro testing on bacterial and fungal biofilm (assay not told apart); type: cell-based; details: in vitro testing
Method: (§1) Two types of biofilm assays were performed: an inhibition assay and a disruption assay. The inhibition assay assesses the compound's ability to prevent biofilm development, while the disruption assay assesses the compound's ability to break up an existing mature biofilm.
(§2) All bacterial biofilm solutions were prepared in Tryptic Soy Broth (TSB), supplemented with 1% glucose (henceforth referred to as TSB-G). All subsequent procedures were performed in a manner that maintained sterility. A solution of each amino acid or an amino acid derivative to be tested was prepared in weight to volume concentrations ranging from 0.1-5.0%. Amino acids and amino acid derivatives were also tested in combinations. Compound solutions were homogenized with gentle agitation in the dark (4° C., 24 hours) before use.
(§3) 32 Amino acids and 2 amino acid derivatives of the amino acid serine that occur freely in human blood were tested. […] 31 of the 32 amino acids that were tested were the L-Isomers. Glycine has no stereoisomers. The 2 amino acid derivatives, ethanolamine and phosphoethanolamine were also tested. All biofilm assays were performed using 384-well non-tissue culture-treated polystyrene plates. The fungal species tested are as follows: Candida albicans, Candida guilliermondii, Candida parapsilosis, Candida glabrata, Candida tropicalis and Candida dubliniensis. The bacterial species tested are as follows: Staphylococci (standard wild type and methicillin-resistant strain USA300), Escherichia coli, Pseudomonas aeruginosa and Staphylococcus epidermidis.
(§4) Fungal strains were streaked on Yeast Peptone Dextrose (YPD) agar plates and incubated at 30° C. for 48 hours. A single colony from each strain to be tested was inoculated into YPD broth and grown for 12 hours at 30° C., shaking at 225 rpm. […] The cells were allowed to adhere to the plate for 90 minutes at 37° C. with shaking (350 rpm). […] The plate was further incubated for 24 hours at 37° C. with shaking (350 rpm). Media was carefully aspirated and the biofilm was measured by optical density at 600 nm. […] The cells were allowed to adhere to the plate for 90 minutes at 37° C. with shaking (350 rpm). […] The plate was further incubated for 24 hours at 37° C. with shaking (350 rpm). […] The plate was further incubated for 24 hours at 37° C. with shaking (350 rpm). Media was carefully aspirated, and the biofilm was measured by optical density at 600 nm.
(§5) Bacterial strains were streaked on Blood Agar plates (5% sheep blood in Tryptic Soy Broth) and incubated at 37° C. for 24 hours. A single colony from each strain to be tested was inoculated in a TSB broth and grown for 12 hours, at 37° C. with shaking (225 rpm). For the bacterial biofilm inhibition assays, 1 μL of saturated overnight cell culture was added to either 80 μL of TSB-G, or TSB-G supplemented with the amino acid compound solution to be tested, in a 384-well plate. The cells were allowed to adhere to the plate for 60 minutes at 37° C. without shaking. The media was carefully aspirated and 80 μL of TSB-G, or TSB-G supplemented with the amino acid compound solution was added to the plate. The plate was further incubated for 24 hours at 37° C. without shaking. Media was carefully aspirated and the biofilm was measured by optical density at 600 nm. Eight or twelve replicates were performed for each tested condition and the reported values are normalized to the control (TSB-G media only). For the bacterial biofilm disruption assays, 80 µL of TSB-G was added to the plate, along with 1 μL of overnight cell culture. The cells were allowed to adhere to the plate for 60 minutes at 37° C. with no shaking. The media was carefully aspirated and 80 μL of TSB-G was added to the plate. The plate was further incubated for 24 hours at 37° C. with no shaking. Media was carefully aspirated from the mature biofilm and 80 μL of TSB-G, or TSB-G supplemented with the amino acid to be tested, was gently added to the plate.

[2] = tested on: bacterial (S. aureus) biofilm; experiment: Bacterial biofilm inhibition assay; type: cell-based, Staphylococcus aureus
Method: as §1, §2, §3
(§6) Bacterial strains were streaked on Blood Agar plates (5% sheep blood in Tryptic Soy Broth) and incubated at 37° C. for 24 hours. A single colony from each strain to be tested was inoculated in a TSB broth and grown for 12 hours, at 37° C. with shaking (225 rpm). For the bacterial biofilm inhibition assays, 1 μL of saturated overnight cell culture was added to either 80 μL of TSB-G, or TSB-G supplemented with the amino acid compound solution to be tested, in a 384-well plate. The cells were allowed to adhere to the plate for 60 minutes at 37° C. without shaking. The media was carefully aspirated and 80 μL of TSB-G, or TSB-G supplemented with the amino acid compound solution was added to the plate. The plate was further incubated for 24 hours at 37° C. without shaking. Media was carefully aspirated and the biofilm was measured by optical density at 600 nm. Eight or twelve replicates were performed for each tested condition and the reported values are normalized to the control (TSB-G media only). For the bacterial biofilm disruption assays, 80 µL of TSB-G was added to the plate, along with 1 μL of overnight cell culture. The cells were allowed to adhere to the plate for 60 minutes at 37° C. with no shaking. The media was carefully aspirated and 80 μL of TSB-G was added to the plate. The plate was further incubated for 24 hours at 37° C. with no shaking. Media was carefully aspirated from the mature biofilm and 80 μL of TSB-G, or TSB-G supplemented with the amino acid to be tested, was gently added to the plate. The plate was further incubated for 24 hours at 37° C. without shaking. Media was aspirated and the biofilm was measured by optical density at 600 nm. Twelve replicates were performed for each tested condition and the reported values are normalized to the control (TSB-G media only).

[3] = tested on: bacterial (S. aureus) biofilm; experiment: Bacterial biofilm disruption assay; type: cell-based, Staphylococcus aureus
Method: as §1, §2, §3, §6

[4] = tested on: bacterial biofilm; experiment: In vitro testing on bacterial biofilm (inhibition and/or disruption); type: cell-based; details: in vitro testing
Method: as §1, §2, §3, §6

[5] = tested on: bacterial (S. aureus) biofilm and fungal biofilm (C. albicans); experiment: Biofilm inhibition assay, bacterial and fungal taken together; type: cell-based; details: symbol marks the assay
Method: as §1, §2, §3, §4, §5

[6] = tested on: fungal biofilm (C. albicans); experiment: Fungal biofilm disruption assay; type: cell-based, Candida albicans
Method: as §1, §2, §3, §4

[7] = tested on: fungal biofilm; experiment: In vitro testing on fungal biofilm (inhibition and/or disruption); type: cell-based; details: in vitro testing
Method: as §1, §2, §3, §4

[8] = Table F, in the presence of a sufficient concentration of glycerol
[9] = Table D, Neutral = no effect on the biofilm
[10] = Table E, in the absence of an infusion of glycerol

| Structure (SMILES) | Reduce or Inhibit B Biofilm (dots: Disruption Biofilm Assay) ([3]; Table D, 0.1 to 5.0%) | Reduce or Inhibit B Biofilm (dots: Disruption Biofilm Assay) [3, 8] | effect on bacterial biofilm (in words) [4] | Neutral (square: Inhibition Biofilm Assay) [5, 9] | Neutral (square: Inhibition Biofilm Assay) [5, 10] | Neutral (square: Inhibition Biofilm Assay) [5, 8] | Reduce or Inhibit F Biofilm (dots: Disruption Biofilm Assay) ([6]; Table D, 0.1 to 5.0%) | other results |
| --- | --- | --- | --- | --- | --- | --- | --- | --- |
| N[C@@H](Cc1ccc(O)cc1)C(=O)O [Tyrosine, L-tyrosine] | – | – | – | – | – | – | – | effect on bacterial and fungal biofilm (in words) [1]: neutral effect on biofilm; effect on bacterial and fungal biofilm (in words) ([1]; listed as tyrosine): neutral, having no effect on biofilm |
| NCCOP(=O)(O)O [Phospho-ethanolamine, phosphoethanolamine] | ● (Single dot [ie. ●] signifies little effect on the Disruption Biofilm Assay (from about 10 to less than 30%)) | ● (Single dot [ie. ●] signifies little effect on the Disruption Biofilm Assay (from about 10 to less than 30%)) | antibacterial biofilm effect | – | – | – | – | Reduce or Inhibit B Biofilm (squares: Inhibition Biofilm Assay) ([2]; Table D, 0.1 to 5.0%): ▪ (Single square [ie. ▪] signifies little effect on the Inhibition Biofilm Assay (from about 10 to less than 30%)); Reduce or Inhibit B Biofilm (squares: Inhibition Biofilm Assay) [2, 8]: ▪ (Single square [ie. ▪] signifies little effect on the Inhibition Biofilm Assay (from about 10 to less than 30%)) |
| NC(CCCC(=O)O)C(=O)O (stereo not shown) [2 Aminoadipic Acid, 2-aminoadipic acid] | ● (Single dot [ie. ●] signifies little effect on the Disruption Biofilm Assay (from about 10 to less than 30%)) | ● (Single dot [ie. ●] signifies little effect on the Disruption Biofilm Assay (from about 10 to less than 30%)) | antibacterial biofilm effect | – | – | – | – | Reduce or Inhibit B Biofilm (squares: Inhibition Biofilm Assay) ([2]; Table D, 0.1 to 5.0%): ▪ (Single square [ie. ▪] signifies little effect on the Inhibition Biofilm Assay (from about 10 to less than 30%)); Reduce or Inhibit B Biofilm (squares: Inhibition Biofilm Assay) [2, 8]: ▪ (Single square [ie. ▪] signifies little effect on the Inhibition Biofilm Assay (from about 10 to less than 30%)) |
| N[C@@H](CCSC[C@H](N)C(=O)O)C(=O)O [Cystathionine, L-cystathionine] | ● (Single dot [ie. ●] signifies little effect on the Disruption Biofilm Assay (from about 10 to less than 30%)) | ● (Single dot [ie. ●] signifies little effect on the Disruption Biofilm Assay (from about 10 to less than 30%)) | antibacterial biofilm effect | ▪ (Single square [ie. ▪] signifies little effect on the Inhibition Biofilm Assay (from about 10 to less than 30%)) | ▪ (Single square [ie. ▪] signifies little effect on the Inhibition Biofilm Assay (from about 10 to less than 30%)) | ▪ (Single square [ie. ▪] signifies little effect on the Inhibition Biofilm Assay (from about 10 to less than 30%)) | – | – |
| C[C@H](N)C(=O)O [Alanine, L-alanine] | – | – | promoted bacterial biofilm formation | ▪ (Single square [ie. ▪] signifies little effect on the Inhibition Biofilm Assay (from about 10 to less than 30%)) | ▪ (Single square [ie. ▪] signifies little effect on the Inhibition Biofilm Assay (from about 10 to less than 30%)) | ▪ (Single square [ie. ▪] signifies little effect on the Inhibition Biofilm Assay (from about 10 to less than 30%)) | ● (Single dot [ie. ●] signifies little effect on the Disruption Biofilm Assay (from about 10 to less than 30%)) | – |
| N[C@@H](CCS)C(=O)O [Homocysteine, L-homocysteine] | – | – | – | – | – | – | – | effect on fungal biofilm (in words) [7]: antifungal biofilm effects |
| N[C@@H](CO)C(=O)O [Serine, L-serine] | – | – | promoted bacterial biofilm formation | – | – | – | ● (Single dot [ie. ●] signifies little effect on the Disruption Biofilm Assay (from about 10 to less than 30%)) | Reduce or Inhibit F Biofilm (dots: Disruption Biofilm Assay) [6, 8]: ● (Single dot [ie. ●] signifies little effect on the Disruption Biofilm Assay (from about 10 to less than 30%)) |
| N[C@@H](Cc1ccccc1)C(=O)O [Phenylalanine, L-phenylalanine] | – | – | promoted bacterial biofilm formation | – | – | – | – | Promote B Biofilm (squares: Inhibition Biofilm Assay) ([2]; Table D, 0.1 to 5.0%): ▪ (Single square [ie. ▪] signifies little effect on the Inhibition Biofilm Assay (from about 10 to less than 30%)); Promote B Biofilm (squares: Inhibition Biofilm Assay) [2, 10]: ▪ (Single square [ie. ▪] signifies little effect on the Inhibition Biofilm Assay (from about 10 to less than 30%)) |
| N[C@@H](Cc1c[nH]c2ccccc12)C(=O)O [Tryptophan, L-tryptophan] | – | – | promoted bacterial biofilm formation | – | – | – | ● (Single dot [ie. ●] signifies little effect on the Disruption Biofilm Assay (from about 10 to less than 30%)) | Reduce or Inhibit F Biofilm (dots: Disruption Biofilm Assay) [6, 8]: ● (Single dot [ie. ●] signifies little effect on the Disruption Biofilm Assay (from about 10 to less than 30%)) |
| N[C@@H](Cc1c[nH]cn1)C(=O)O [Histidine, L-histidine] | – | – | – | ▪ (Single square [ie. ▪] signifies little effect on the Inhibition Biofilm Assay (from about 10 to less than 30%)) | ▪ (Single square [ie. ▪] signifies little effect on the Inhibition Biofilm Assay (from about 10 to less than 30%)) | ▪ (Single square [ie. ▪] signifies little effect on the Inhibition Biofilm Assay (from about 10 to less than 30%)) | – | effect on bacterial and fungal biofilm (in words) [1]: neutral, having no effect on biofilm; also recorded: neutral |
